Measured values taken from BindingDB's records for patent US12391687 (Shanghai Ennovabio Pharmaceuticals, 2025).

Columns and labels:
[1] = target: High affinity nerve growth factor receptor (Homo sapiens, UniProt P04629); assay: In Vitro Activity Test on TRKA, TRKB, TRKC Kinase
Method: (§1) Table 1: Experimental MethodThe tested compounds were subjected to 3-fold serial dilution to reach a final concentration of 1 μM to 0.05 nM (10 concentrations), duplicates for each concentration; and the DMSO concentration in the detection reaction was 1%.TRKA Enzyme Reaction:0.2 ng/μL TRKA protein kinase, 1 μM TK Substrate-biotin polypeptide substrate, 14.68 μM ATP, 1×enzymatic buffer, 5 mM MgCl2, and 1 mM DTT. The assay plate was White Proxiplate384-Plus plate (PerkinElmer), and the reaction was incubated at room temperature for 40 min, and the assay volume was 10 μL.TRKB Enzyme Reaction:0.037 ng/μL TRKB protein kinase, 1 μM TK Substrate-biotin polypeptide substrate, 4.77 μM ATP, 1× enzymatic buffer, 5 mM MgCl2, 1 mM MnCl2 and 1 mM DTT. The assay plate was White Proxiplate 384-Plus plate (PerkinElmer), the reaction was incubated at room temperature for 50 min, and the assay volume was 10 μL.TRKC Enzyme Reaction:0.037 ng/μL TRKC protein kinase, 1 μM TK Substrate-biotin polypeptide substrate, 25.64 μM ATP, 1× enzymatic buffer, 5 mM MgCl2, and 1 mM DTT. The detection plate was White Proxiplate 384-Plus plate (PerkinElmer), the reaction was incubated at room temperature for 40 min, and the assay volume was 10 μL.Detection Steps:10 μL of detection reagent (containing 0.125 μM SA-XL665 and 5 μL 1×TK-Antibody) was added to the plate and incubated overnight at room temperature. Synergy Neo 2 was used to read the plate.

[2] = target: NT-3 growth factor receptor (Homo sapiens, UniProt Q16288); assay: In Vitro Activity Test on TRKA, TRKB, TRKC Kinase
Method: as §1

[3] = target: BDNF/NT-3 growth factors receptor (Homo sapiens, UniProt Q16620); assay: In Vitro Activity Test on TRKA, TRKB, TRKC Kinase
Method: as §1

[4] = target: High affinity nerve growth factor receptor [G595R] (Homo sapiens, UniProt P04629, G595R); assay: In Vitro Activity Test on Mutant TRKA (G595R)
Method: Table 3: Experimental MaterialsThe recombinant human TRKA (G595R), TRKA (G667C) and TRKC (G623R) proteins were purchased from SignalChem. HTRF kinEASE TK kit was purchased from Cisbio Bioassays. Synergy Neo 2 of Biotek was used to read the plate. TRKA (G595R) Enzyme Reaction:0.12 ng/μL TRKA (G595R) kinase, 1 μM TK Substrate-biotin polypeptide substrate, 4.5 μM ATP, 1× enzymatic buffer, 5 mM MgCl2, and 1 mM DTT. The assay plate was White Proxiplate384-Plus plate (PerkinElmer), and the reaction was incubated at room temperature for 30 min, and the assay volume was 10 μL. Detection Steps:10 μL of detection reagent (containing 0.125 μM SA-XL665 and 5 μL 1×TK-Antibody) was added to the plate and incubated overnight at room temperature, and Synergy Neo 2 was used to read the plate.

High affinity nerve growth factor receptor, sequence (P04629 whole entry): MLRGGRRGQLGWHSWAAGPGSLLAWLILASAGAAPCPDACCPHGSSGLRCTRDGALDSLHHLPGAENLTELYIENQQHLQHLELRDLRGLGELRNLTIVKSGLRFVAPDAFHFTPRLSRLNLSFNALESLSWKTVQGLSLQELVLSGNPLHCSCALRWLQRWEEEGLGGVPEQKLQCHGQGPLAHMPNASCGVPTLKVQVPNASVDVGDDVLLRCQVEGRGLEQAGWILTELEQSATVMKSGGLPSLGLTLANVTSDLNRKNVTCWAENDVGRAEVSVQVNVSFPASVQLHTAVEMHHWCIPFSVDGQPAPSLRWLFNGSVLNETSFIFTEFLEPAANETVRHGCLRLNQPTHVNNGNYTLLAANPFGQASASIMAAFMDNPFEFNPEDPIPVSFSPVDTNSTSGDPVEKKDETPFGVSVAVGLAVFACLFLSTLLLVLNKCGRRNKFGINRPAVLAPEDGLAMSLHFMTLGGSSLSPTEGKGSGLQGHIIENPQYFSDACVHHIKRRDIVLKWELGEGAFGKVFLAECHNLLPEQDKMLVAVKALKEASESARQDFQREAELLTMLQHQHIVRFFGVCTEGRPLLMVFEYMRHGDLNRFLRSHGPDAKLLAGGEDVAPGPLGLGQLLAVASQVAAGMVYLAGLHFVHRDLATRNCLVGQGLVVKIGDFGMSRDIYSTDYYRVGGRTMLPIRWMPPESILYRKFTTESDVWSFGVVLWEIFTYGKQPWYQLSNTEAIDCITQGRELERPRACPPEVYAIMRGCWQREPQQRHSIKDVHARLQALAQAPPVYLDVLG
BDNF/NT-3 growth factors receptor, sequence (Q16620 whole entry): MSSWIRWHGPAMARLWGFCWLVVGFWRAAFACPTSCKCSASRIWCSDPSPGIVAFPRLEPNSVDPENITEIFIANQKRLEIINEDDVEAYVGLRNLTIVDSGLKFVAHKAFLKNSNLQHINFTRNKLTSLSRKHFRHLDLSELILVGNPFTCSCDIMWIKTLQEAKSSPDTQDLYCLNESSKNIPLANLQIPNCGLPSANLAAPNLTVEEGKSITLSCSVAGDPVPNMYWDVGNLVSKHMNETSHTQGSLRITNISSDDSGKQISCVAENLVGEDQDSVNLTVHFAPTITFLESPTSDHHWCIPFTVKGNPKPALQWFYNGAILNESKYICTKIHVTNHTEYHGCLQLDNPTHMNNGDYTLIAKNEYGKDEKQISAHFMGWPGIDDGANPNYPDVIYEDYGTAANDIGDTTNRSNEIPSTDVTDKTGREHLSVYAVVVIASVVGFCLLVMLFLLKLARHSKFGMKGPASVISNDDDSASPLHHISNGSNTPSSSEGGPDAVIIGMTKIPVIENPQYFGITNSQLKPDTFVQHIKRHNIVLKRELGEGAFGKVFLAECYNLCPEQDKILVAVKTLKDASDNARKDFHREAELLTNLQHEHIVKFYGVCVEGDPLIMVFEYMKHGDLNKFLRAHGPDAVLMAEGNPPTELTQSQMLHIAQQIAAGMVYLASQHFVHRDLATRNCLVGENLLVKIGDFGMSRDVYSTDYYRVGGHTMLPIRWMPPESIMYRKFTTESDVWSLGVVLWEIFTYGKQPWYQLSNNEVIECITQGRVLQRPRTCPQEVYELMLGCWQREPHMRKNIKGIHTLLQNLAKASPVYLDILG
NT-3 growth factor receptor, sequence (Q16288 whole entry): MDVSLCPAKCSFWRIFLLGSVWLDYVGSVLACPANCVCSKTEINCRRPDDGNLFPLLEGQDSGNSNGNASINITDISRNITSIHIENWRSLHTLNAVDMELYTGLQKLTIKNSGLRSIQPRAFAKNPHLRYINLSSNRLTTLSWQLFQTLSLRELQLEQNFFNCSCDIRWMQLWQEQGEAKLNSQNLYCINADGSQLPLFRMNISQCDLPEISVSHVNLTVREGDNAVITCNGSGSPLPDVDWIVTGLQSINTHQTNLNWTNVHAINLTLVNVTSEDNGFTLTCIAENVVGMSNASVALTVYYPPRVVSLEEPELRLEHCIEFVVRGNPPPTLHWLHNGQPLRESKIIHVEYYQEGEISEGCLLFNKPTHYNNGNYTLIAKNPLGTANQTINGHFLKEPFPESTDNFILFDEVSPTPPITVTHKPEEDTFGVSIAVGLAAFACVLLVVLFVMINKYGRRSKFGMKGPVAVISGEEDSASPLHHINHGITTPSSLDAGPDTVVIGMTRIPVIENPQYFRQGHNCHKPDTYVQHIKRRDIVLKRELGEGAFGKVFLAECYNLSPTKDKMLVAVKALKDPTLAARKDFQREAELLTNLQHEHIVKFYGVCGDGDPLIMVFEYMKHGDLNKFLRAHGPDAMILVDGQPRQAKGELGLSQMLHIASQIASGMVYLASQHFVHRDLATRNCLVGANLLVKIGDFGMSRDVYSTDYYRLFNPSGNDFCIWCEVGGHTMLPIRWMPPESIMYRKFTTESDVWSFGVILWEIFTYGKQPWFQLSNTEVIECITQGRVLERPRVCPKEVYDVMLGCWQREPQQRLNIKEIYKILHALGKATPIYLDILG
High affinity nerve growth factor receptor [G595R], sequence (P04629 33-796 G595R limits assumed): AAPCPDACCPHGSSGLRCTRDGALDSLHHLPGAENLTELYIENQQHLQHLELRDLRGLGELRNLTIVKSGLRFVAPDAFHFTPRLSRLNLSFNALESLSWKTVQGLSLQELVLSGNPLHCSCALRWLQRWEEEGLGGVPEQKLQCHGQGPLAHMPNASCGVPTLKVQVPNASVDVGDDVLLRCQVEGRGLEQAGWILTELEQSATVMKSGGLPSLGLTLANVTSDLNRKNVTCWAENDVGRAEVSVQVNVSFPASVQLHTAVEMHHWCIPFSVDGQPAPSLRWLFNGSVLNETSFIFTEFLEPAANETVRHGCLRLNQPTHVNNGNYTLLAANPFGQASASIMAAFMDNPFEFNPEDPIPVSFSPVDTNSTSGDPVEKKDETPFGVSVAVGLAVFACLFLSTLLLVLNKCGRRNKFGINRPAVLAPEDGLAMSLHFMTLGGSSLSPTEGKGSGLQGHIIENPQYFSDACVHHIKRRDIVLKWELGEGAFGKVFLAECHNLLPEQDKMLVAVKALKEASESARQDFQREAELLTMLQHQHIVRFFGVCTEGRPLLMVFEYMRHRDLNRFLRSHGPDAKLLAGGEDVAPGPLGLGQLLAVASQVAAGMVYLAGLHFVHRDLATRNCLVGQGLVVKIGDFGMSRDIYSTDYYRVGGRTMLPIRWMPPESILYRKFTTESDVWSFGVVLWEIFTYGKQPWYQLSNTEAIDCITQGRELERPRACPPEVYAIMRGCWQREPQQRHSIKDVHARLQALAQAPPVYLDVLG

Row | SMILES | IC50 [1] [nM] | IC50 [2] [nM] | IC50 [3] [nM] | IC50 [4] [nM]
1 | O=C(Nc1cnc2[nH]nc(N3C[C@@H](F)C[C@@H]3c3cc(F)ccc3F)c2c1)c1ccc(N2CC[C@H](O)C2)nc1 [US12391687, Example 11] | – | < 10 | < 1 | < 10
2 | Fc1ccc(F)c([C@H]2C[C@H](F)CN2c2n[nH]c3ncc(-c4cnn(C5CNC5)c4)cc23)c1 [US12391687, Example 26] | < 1 | < 1 | < 1 | –
3 | CC(C)OCc1nnc(-c2cnc3[nH]nc(N4C[C@@H](F)C[C@@H]4c4cc(F)ccc4F)c3c2)o1 [US12391687, Example 42] | < 1 | < 1 | < 1 | –

Second part, the compound after the results:

Row | IC50 [1] [nM] | IC50 [2] [nM] | IC50 [3] [nM] | IC50 [4] [nM] | SMILES
4 | < 10 | < 10 | < 10 | – | CNC(=O)c1cnc2[nH]nc(N3CCC[C@@H]3c3cc(F)ccc3F)c2c1 [US12391687, Example 7]
5 | < 10 | < 10 | < 10 | – | NC(=O)CCNC(=O)c1cnc2[nH]nc(N3CCC[C@@H]3c3cc(F)ccc3F)c2c1 [US12391687, Example 15]
